{
  "source": "patent US10993935B2",
  "about": "“Compositions and methods for treatment of lung infections” (priority 2018, dated 2021)",
  "test_system": "P. aeruginosa PAO1 with bioluminescent operon (luxCDABE)",
  "assay": "Murine pneumonia model, multiple-dose treatment, lung bacterial load",
  "format": "in vivo, DBA/2 mice",
  "settings": "300 mg doses at 6, 8 and 10 h post-infection (3× TOB, or RFX then 2× TOB); lungs at 12, 18, 24 h",
  "text": "FIG. 6 is a graph showing that the addition of RFX to multiple treatments of TOB results in a decrease of CFU per milliliter of P. aeruginosa in mouse lungs. Plot showing the CFU per milliliter counts of mice after being infected with P. aeruginosa and left untreated, treated with multiple doses of TOB, or treated with multiple doses of TOB with addition of RFX. Data shown represent average of 2 mice per time point per group. Two-way ANOVA was used to test for statistical significance with a P value of <0.01 (****, P<0.0001).\nFemale DBA/2 mice were infected at 0 hour and split into 3 experimental groups of 8: no treatment; treatment with 300 mg TOB at 6, 8, and 10 h post-infection; or treatment with 300 mg RFX at 6 h and 300 mg TOB at 8 and 10 h post-infection. Two mice from each group were sacrificed at 12, 18, and 24 h post-infection. Lungs from sacrificed mice were homogenized in 1% PPBS and tested for bacterial growth to determine CFU load per mouse. Bacteria grown were also imaged for evidence of bioluminescence. Two mice from each group were left to observe for survival.\nBased on the efficacy seen with the single dose treatment a multiple dose study was used to replicate clinical treatment conditions seen with CF infections. The efficacy of TOB in multiple doses with or without RFX was determined using the established lung infection model. […]",
  "data": [
    {"smiles": "NC[C@H]1O[C@H](O[C@H]2[C@H](O)[C@@H](O[C@H]3O[C@H](CO)[C@@H](O)[C@H](N)[C@H]3O)[C@H](N)C[C@@H]2N)[C@H](N)C[C@@H]1O", "note": "[TOB, tobramycin]", "values": [
      {"measurement": "bacterial growth in the lungs", "value": "around 10^8 CFUs"}
    ]}
  ]
}
